Source: patent US20260276652A1, “METHODS FOR ASSESSING PLATELET FUNCTION” (UNIVERSITY OF READING, priority 2023, published 2026)
Entries after “also recorded” stand apart in the source; their conditions may differ.

Assays:
[1] = tested on: platelets; test: PPAnalysis flow cytometry assay of platelet sensitivity (p-selectin exposure) to CRP-XL in patients with ischaemic heart disease; format: cell-based, human; conditions: for sensitivity to CRP-XL of patients receiving aspirin compared with aspirin-free patients: patients with ischaemic heart disease, student's t-test
Experimental: The flow cytometry assay measured fluorescein isothiocyanate-conjugated anti-fibrinogen antibody and PE-Cy5-conjugated anti-P-selectin antibody binding following stimulation with ADP ([…]), collagen-related peptide (CRP; […]), epinephrine ([…]), thrombin receptor activator peptide 6 (TRAP-6; […]), and U46619 ([…]) using an Accuri C6 (B D, Winnersh, UK) for cohort 1 and a Beckman-Coulter EPICS Profile XL for cohort 2, as described in supplemental Section 2 of Dunster 2021 (Dunster et al. Multiparameter phenotyping of platelet reactivity for stratification of human cohorts, Blood Adv (2021) 5(20): 4017-4030).
A Platelet Phenomic Analysis (PPAnalysis) assay was carried out described in Dunster 2021. PPAnalysis comprises a flow cytometry-based assay and bespoke software that was developed to make data analysis simple, rapid, and reproducible. The assay simultaneously measures 2 aspects of platelet activation, fibrinogen binding (a marker of αllßb3 activation) and the exposure of P-selectin on the platelet surface (a marker of a-granule secretion). The supplementary information accompanying Dunster 2021 provides step-by-step instructions for setting up and carrying out the PPAnalysis assay and data analysis.

[2] = tested on: platelets in whole blood; test: In vitro thrombus formation on type I collagen, whole blood perfused at arterial shear rate; format: cell-based, human; conditions: patients with ischaemic heart disease, 6 minutes, 1000 s^-1, student's t-test
Experimental: Thrombus formation on immobilized type I collagen was performed using the VenaFlux Platform and Vena 8Fluor+Biochips (Cellix). Channels were coated overnight at 4° C. with collagen, then blocked with 1% BSA/PBS for 1 h and replaced with PBS. Blood was collected into sodium citrate (4% w/v). Platelets in whole blood were incubated with 10 mM DiOC6 (Thermo Fisher Scientific) for 10 min. Perfusion was performed at 37° C. with an arterial shear rate of 1000 s^−1 for at least 520 seconds. Thrombus formation was visualised using a 20× magnification lens on a Nikon A1-R confocal microscope. Images were brightness corrected and converted to a binary mask with software provided auto-thresholds. Binary Mask Particles were then analysed to determine thrombus count and size.

[3] = target: T1, glycoprotein VI (GPVI) receptor (Homo sapiens, UniProt Q9HCN6); conditions: Smethurst et al.; cited from earlier work
T1 sequence (Q9HCN6 21-339): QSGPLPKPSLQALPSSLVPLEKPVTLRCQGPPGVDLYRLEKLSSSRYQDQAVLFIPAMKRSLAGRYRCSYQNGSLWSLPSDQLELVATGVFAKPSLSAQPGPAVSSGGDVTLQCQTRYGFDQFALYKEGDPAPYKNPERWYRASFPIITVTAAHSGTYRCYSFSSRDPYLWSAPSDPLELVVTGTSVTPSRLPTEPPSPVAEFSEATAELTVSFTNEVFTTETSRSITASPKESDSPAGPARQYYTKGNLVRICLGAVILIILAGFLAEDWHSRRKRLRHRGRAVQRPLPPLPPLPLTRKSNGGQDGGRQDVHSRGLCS
T1 sequence (P30273 19-86 partner): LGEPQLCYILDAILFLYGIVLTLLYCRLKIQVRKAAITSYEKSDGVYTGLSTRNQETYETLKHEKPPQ

| Compound | sensitivity to CRP-XL of patients receiving ASA ([1]; patients with ischaemic heart disease receiving ASA, mean ± spread, ASA free patients 7.4±0.49) | sensitivity to CRP-XL of patients receiving aspirin compared with aspirin-free patients [1] | sensitivity to CRP-XL of patients receiving aspirin compared with aspirin-free patients ([1]; listed as ASA) | in vitro thrombus volume in patients with versus without aspirin [2] | platelet agonist potency compared with non-cross-linked CRP [3] |
| --- | --- | --- | --- | --- | --- |
| CC(=O)Oc1ccccc1C(=O)O [aspirin] | 7.2±0.37 log g/mL | lower sensitivity to CRP-XL | significantly lower | not reduced; also recorded: not significantly different | – |
| (GPC-(GPO)10-GPCG-amide)3 [CRP-XL] | – | – | – | – | more potent platelet agonist |
